# Test results taken from ChEMBL document CHEMBL3992514, “Synthesis, biological characterisation and structure activity relationships of aromatic bisamidines active against Plasmodium falciparum” (Eur J Med Chem, 2017).
# Tested on: Plasmodium falciparum
# Test: Antiparasitic activity against drug-resistant Plasmodium falciparum Dd2 infected in erythrocytes assessed as growth inhibition after 48 hrs by [3H]-hypoxanthine incorporation assay
# Type: functional, cell-based
# Details: not given
row,Structure (SMILES),IC50
1,N=C(N)c1ccc(-c2cc(CC(=O)NCC3CCCCC3)c(-c3ccc(C(=N)N)cc3)o2)cc1,2.42 µM
2,Cc1c(-c2ccc(C(=N)N)cc2)oc(-c2ccc(C(=N)N)cc2)c1C,0.06 µM
3,CNC(=O)Cc1cc(-c2ccc(C(=N)N)cc2)oc1-c1ccc(C(=N)N)cc1,3.07 µM
4,Cc1c(-c2ccc(C(=N)NCC(C)C)cc2)oc(-c2ccc(C(=N)NCC(C)C)cc2)c1C,0.15 µM
5,CCN(CC)CCN=C(Nc1ccc(C(=N)N)cc1)Nc1ccc(C(=N)N)cc1,> 10 µM
6,CN(C)CCN=C(Nc1ccc(C(=N)N)cc1)Nc1ccc(C(=N)N)cc1,> 10 µM
7,N=C(N)c1ccc(-c2cc(CC(=O)N3CCN(CCO)CC3)c(-c3ccc(C(=N)N)cc3)o2)cc1,> 10 µM
8,N=C(N)c1ccc(-c2cc(CC(=O)N3CCN(C(c4ccccc4)c4ccccc4)CC3)c(-c3ccc(C(=N)N)cc3)o2)cc1,5.33 µM
9,N=C(N)c1ccc(-c2cc(CC(=O)NCCCO)c(-c3ccc(C(=N)N)cc3)o2)cc1,22.2 µM
10,N=C(N)c1ccc(-c2cc(CC(=O)N3CCN(C(c4ccc(F)cc4)c4ccc(F)cc4)CC3)c(-c3ccc(C(=N)N)cc3)o2)cc1,6.63 µM
11,CCNC(=N)c1ccc(-c2oc(-c3ccc(C(=N)NCC)cc3)c(C)c2C)cc1,0.03 µM
12,COCc1c(-c2ccc(C(=N)N)cc2)oc(-c2ccc(C(=N)N)cc2)c1Cl,0.09 µM
13,CCCOCc1c(-c2ccc(C(=N)N)cc2)oc(-c2ccc(C(=N)N)cc2)c1COCCC,0.31 µM
14,CN(C)C(=O)Cc1cc(-c2ccc(C(=N)N)cc2)oc1-c1ccc(C(=N)N)cc1,3.83 µM
15,N=C(N)c1ccc(-c2cc(CC(=O)NCC(c3ccccc3)c3ccccc3)c(-c3ccc(C(=N)N)cc3)o2)cc1,1.43 µM
16,N=C(N)c1ccc(NC(=O)Nc2ccc(C(=N)N)cc2)cc1,0.21 µM
17,CCOC(=O)Cc1cc(-c2ccc(C(=N)N)cc2)oc1-c1ccc(C(=N)N)cc1,0.86 µM
18,CCOCc1c(-c2ccc(C(=N)N)cc2)oc(-c2ccc(C(=N)N)cc2)c1COCC,0.85 µM
19,CN1CCN(C(=O)Cc2cc(-c3ccc(C(=N)N)cc3)oc2-c2ccc(C(=N)N)cc2)CC1,> 10 µM
20,CC(C)OCc1c(-c2ccc(C(=N)N)cc2)oc(-c2ccc(C(=N)N)cc2)c1COC(C)C,1.2 µM

# Tested on: Plasmodium falciparum
# Test: Antiparasitic activity against drug-sensitive Plasmodium falciparum 3D7 infected in erythrocytes assessed as growth inhibition after 48 hrs by SYBR green 1 dye-based flow cytometry
# Type: functional, cell-based
# Details: 3D7, 48 h
row,Structure (SMILES),IC50
1,Cc1c(-c2ccc(C(=N)N)cc2)oc(-c2ccc(C(=N)N)cc2)c1C,0.033 µM
2,CNC(=O)Cc1cc(-c2ccc(C(=N)N)cc2)oc1-c1ccc(C(=N)N)cc1,5.41 µM
3,Cc1c(-c2ccc(C(=N)NCC(C)C)cc2)oc(-c2ccc(C(=N)NCC(C)C)cc2)c1C,0.038 µM
4,CCN(CC)CCN=C(Nc1ccc(C(=N)N)cc1)Nc1ccc(C(=N)N)cc1,> 10 µM
5,CN(C)CCN=C(Nc1ccc(C(=N)N)cc1)Nc1ccc(C(=N)N)cc1,> 10 µM
6,N=C(N)c1ccc(-c2cc(CC(=O)N3CCN(CCO)CC3)c(-c3ccc(C(=N)N)cc3)o2)cc1,> 10 µM
7,N=C(N)c1ccc(-c2cc(CC(=O)N3CCN(C(c4ccccc4)c4ccccc4)CC3)c(-c3ccc(C(=N)N)cc3)o2)cc1,1.43 µM
8,N=C(N)c1ccc(-c2cc(CC(=O)NCCCO)c(-c3ccc(C(=N)N)cc3)o2)cc1,> 10 µM
9,N=C(N)c1ccc(-c2cc(CC(=O)N3CCN(C(c4ccc(F)cc4)c4ccc(F)cc4)CC3)c(-c3ccc(C(=N)N)cc3)o2)cc1,1.7 µM
10,CCNC(=N)c1ccc(-c2oc(-c3ccc(C(=N)NCC)cc3)c(C)c2C)cc1,0.02 µM
11,COCc1c(-c2ccc(C(=N)N)cc2)oc(-c2ccc(C(=N)N)cc2)c1Cl,0.16 µM
12,CCCOCc1c(-c2ccc(C(=N)N)cc2)oc(-c2ccc(C(=N)N)cc2)c1COCCC,0.39 µM
13,CN(C)C(=O)Cc1cc(-c2ccc(C(=N)N)cc2)oc1-c1ccc(C(=N)N)cc1,5.76 µM
14,N=C(N)c1ccc(-c2cc(CC(=O)NCC(c3ccccc3)c3ccccc3)c(-c3ccc(C(=N)N)cc3)o2)cc1,1.39 µM
15,N=C(N)c1ccc(NC(=O)Nc2ccc(C(=N)N)cc2)cc1,0.046 µM
16,CCOC(=O)Cc1cc(-c2ccc(C(=N)N)cc2)oc1-c1ccc(C(=N)N)cc1,0.22 µM
17,CCOCc1c(-c2ccc(C(=N)N)cc2)oc(-c2ccc(C(=N)N)cc2)c1COCC,1.19 µM
18,CN1CCN(C(=O)Cc2cc(-c3ccc(C(=N)N)cc3)oc2-c2ccc(C(=N)N)cc2)CC1,> 10 µM
19,CC(C)OCc1c(-c2ccc(C(=N)N)cc2)oc(-c2ccc(C(=N)N)cc2)c1COC(C)C,1.08 µM

# Tested on: HEK293
# Test: Cytotoxicity against HEK293 cells assessed as decrease in cell viability after 24 hrs by Alamar blue assay
# Type: ADME, cell-based
# Details: Homo sapiens, HEK293, 24 h
row,Structure (SMILES),IC50
1,N=C(N)c1ccc(-c2cc(CC(=O)NCC3CCCCC3)c(-c3ccc(C(=N)N)cc3)o2)cc1,> 50 µM
2,Cc1c(-c2ccc(C(=N)N)cc2)oc(-c2ccc(C(=N)N)cc2)c1C,74 µM
3,CNC(=O)Cc1cc(-c2ccc(C(=N)N)cc2)oc1-c1ccc(C(=N)N)cc1,> 50 µM
4,Cc1c(-c2ccc(C(=N)NCC(C)C)cc2)oc(-c2ccc(C(=N)NCC(C)C)cc2)c1C,33.1 µM
5,CCN(CC)CCN=C(Nc1ccc(C(=N)N)cc1)Nc1ccc(C(=N)N)cc1,> 50 µM
6,CN(C)CCN=C(Nc1ccc(C(=N)N)cc1)Nc1ccc(C(=N)N)cc1,> 50 µM
7,N=C(N)c1ccc(-c2cc(CC(=O)N3CCN(CCO)CC3)c(-c3ccc(C(=N)N)cc3)o2)cc1,> 50 µM
8,N=C(N)c1ccc(-c2cc(CC(=O)N3CCN(C(c4ccccc4)c4ccccc4)CC3)c(-c3ccc(C(=N)N)cc3)o2)cc1,> 50 µM
9,N=C(N)c1ccc(-c2cc(CC(=O)NCCCO)c(-c3ccc(C(=N)N)cc3)o2)cc1,> 50 µM
10,N=C(N)c1ccc(-c2cc(CC(=O)N3CCN(C(c4ccc(F)cc4)c4ccc(F)cc4)CC3)c(-c3ccc(C(=N)N)cc3)o2)cc1,> 50 µM
11,CCNC(=N)c1ccc(-c2oc(-c3ccc(C(=N)NCC)cc3)c(C)c2C)cc1,33.3 µM
12,COCc1c(-c2ccc(C(=N)N)cc2)oc(-c2ccc(C(=N)N)cc2)c1Cl,209 µM
13,CCCOCc1c(-c2ccc(C(=N)N)cc2)oc(-c2ccc(C(=N)N)cc2)c1COCCC,> 50 µM
14,CN(C)C(=O)Cc1cc(-c2ccc(C(=N)N)cc2)oc1-c1ccc(C(=N)N)cc1,> 50 µM
15,N=C(N)c1ccc(-c2cc(CC(=O)NCC(c3ccccc3)c3ccccc3)c(-c3ccc(C(=N)N)cc3)o2)cc1,> 50 µM
16,N=C(N)c1ccc(NC(=O)Nc2ccc(C(=N)N)cc2)cc1,266 µM
17,CCOC(=O)Cc1cc(-c2ccc(C(=N)N)cc2)oc1-c1ccc(C(=N)N)cc1,232 µM
18,CCOCc1c(-c2ccc(C(=N)N)cc2)oc(-c2ccc(C(=N)N)cc2)c1COCC,> 50 µM
19,CN1CCN(C(=O)Cc2cc(-c3ccc(C(=N)N)cc3)oc2-c2ccc(C(=N)N)cc2)CC1,> 50 µM
20,CC(C)OCc1c(-c2ccc(C(=N)N)cc2)oc(-c2ccc(C(=N)N)cc2)c1COC(C)C,> 50 µM

# Tested on: not listed separately
# Test: Selectivity index, ratio of IC50 for HEK293 cells to IC50 for drug-resistant Plasmodium falciparum Dd2 infected in erythrocytes
# Details: human
row,Structure (SMILES),selectivity ratio
1,N=C(N)c1ccc(-c2cc(CC(=O)NCC3CCCCC3)c(-c3ccc(C(=N)N)cc3)o2)cc1,> 20
2,Cc1c(-c2ccc(C(=N)N)cc2)oc(-c2ccc(C(=N)N)cc2)c1C,1230
3,CNC(=O)Cc1cc(-c2ccc(C(=N)N)cc2)oc1-c1ccc(C(=N)N)cc1,> 16
4,Cc1c(-c2ccc(C(=N)NCC(C)C)cc2)oc(-c2ccc(C(=N)NCC(C)C)cc2)c1C,220
5,N=C(N)c1ccc(-c2cc(CC(=O)N3CCN(C(c4ccccc4)c4ccccc4)CC3)c(-c3ccc(C(=N)N)cc3)o2)cc1,> 10
6,N=C(N)c1ccc(-c2cc(CC(=O)NCCCO)c(-c3ccc(C(=N)N)cc3)o2)cc1,> 3
7,N=C(N)c1ccc(-c2cc(CC(=O)N3CCN(C(c4ccc(F)cc4)c4ccc(F)cc4)CC3)c(-c3ccc(C(=N)N)cc3)o2)cc1,> 8
8,CCNC(=N)c1ccc(-c2oc(-c3ccc(C(=N)NCC)cc3)c(C)c2C)cc1,1110
9,COCc1c(-c2ccc(C(=N)N)cc2)oc(-c2ccc(C(=N)N)cc2)c1Cl,2320
10,CCCOCc1c(-c2ccc(C(=N)N)cc2)oc(-c2ccc(C(=N)N)cc2)c1COCCC,> 128
11,CN(C)C(=O)Cc1cc(-c2ccc(C(=N)N)cc2)oc1-c1ccc(C(=N)N)cc1,> 13
12,N=C(N)c1ccc(-c2cc(CC(=O)NCC(c3ccccc3)c3ccccc3)c(-c3ccc(C(=N)N)cc3)o2)cc1,> 35
13,CCOC(=O)Cc1cc(-c2ccc(C(=N)N)cc2)oc1-c1ccc(C(=N)N)cc1,270
14,CCOCc1c(-c2ccc(C(=N)N)cc2)oc(-c2ccc(C(=N)N)cc2)c1COCC,> 59
15,CC(C)OCc1c(-c2ccc(C(=N)N)cc2)oc(-c2ccc(C(=N)N)cc2)c1COC(C)C,> 42

# Tested on: not listed separately
# Test: Selectivity index, ratio of IC50 for HEK293 cells to IC50 for drug-sensitive Plasmodium falciparum 3D7 infected in erythrocytes
# Details: human
row,Structure (SMILES),selectivity ratio
1,Cc1c(-c2ccc(C(=N)N)cc2)oc(-c2ccc(C(=N)N)cc2)c1C,2240
2,CNC(=O)Cc1cc(-c2ccc(C(=N)N)cc2)oc1-c1ccc(C(=N)N)cc1,> 9
3,Cc1c(-c2ccc(C(=N)NCC(C)C)cc2)oc(-c2ccc(C(=N)NCC(C)C)cc2)c1C,870
4,N=C(N)c1ccc(-c2cc(CC(=O)N3CCN(C(c4ccccc4)c4ccccc4)CC3)c(-c3ccc(C(=N)N)cc3)o2)cc1,> 35
5,N=C(N)c1ccc(-c2cc(CC(=O)N3CCN(C(c4ccc(F)cc4)c4ccc(F)cc4)CC3)c(-c3ccc(C(=N)N)cc3)o2)cc1,> 30
6,CCNC(=N)c1ccc(-c2oc(-c3ccc(C(=N)NCC)cc3)c(C)c2C)cc1,1660
7,COCc1c(-c2ccc(C(=N)N)cc2)oc(-c2ccc(C(=N)N)cc2)c1Cl,1310
8,CCCOCc1c(-c2ccc(C(=N)N)cc2)oc(-c2ccc(C(=N)N)cc2)c1COCCC,> 161
9,CN(C)C(=O)Cc1cc(-c2ccc(C(=N)N)cc2)oc1-c1ccc(C(=N)N)cc1,> 8
10,N=C(N)c1ccc(-c2cc(CC(=O)NCC(c3ccccc3)c3ccccc3)c(-c3ccc(C(=N)N)cc3)o2)cc1,> 36
11,N=C(N)c1ccc(NC(=O)Nc2ccc(C(=N)N)cc2)cc1,5780
12,CCOC(=O)Cc1cc(-c2ccc(C(=N)N)cc2)oc1-c1ccc(C(=N)N)cc1,1060
13,CCOCc1c(-c2ccc(C(=N)N)cc2)oc(-c2ccc(C(=N)N)cc2)c1COCC,> 42
14,CC(C)OCc1c(-c2ccc(C(=N)N)cc2)oc(-c2ccc(C(=N)N)cc2)c1COC(C)C,> 46
